Assay results as given in patent publication US20140296143A1, “Angiotensin-(1-7) As A Chemoprevention Agent” (Wake Forest Innovations, priority 2008, published 2014).

How the values were obtained:
[1] = Plasma Ang-(1-7) level after intravenous infusion in mice; assay type: in vivo, mouse
caspase-3 = experiment: Caspase-3 activity in A549 cell lysates, fluorometric assay; assay type: cell-based, human; conditions: A549 cells, 100 nM; maximal at 16 and 24 h
Experimental: The specificity of the activity of each caspase substrate was also verified by assays in the presence of specific inhibitors. […] Caspase-3 activity was measured by a fluorometric assay using Ac-DEVD-AFC (Acetylated-Asp-Glu-Val-Asp-7-amino-4-trifluoromethylcoumarin) (SEQ ID NO: 9) as a specific substrate for caspase-3 and Z-DEVD-CHO as a selective caspase-3 inhibitor. Caspase-8 activity was measured by a fluorometric assay using Ac-LETD-AFC (Acetylated-Leu-Glu-Thr-Asp-7-amino-4-trifluoromethylcoumarin) (SEQ ID NO: 10) as a specific substrate and Z-LETD-CHO as a selective caspase-8 inhibitor. The data are presented as relative fluorescence units (RFU).

[2] = tested on: chorioallantoic membrane (CAM); experiment: Chorioallantoic membrane (CAM) assay of neovascularization; assay type: in vivo, chicken
Experimental: Chicken eggs were incubated for four days in constant humidity at 37° C. […] The extent of neovascularization was quantified by counting branch points, as illustrated in FIG. 14 showing about a 50% reduction in branch points. No difference was found in the number of branch points between the two groups prior to treatment with Ang-(1-7).

[3] = tested on: A549 human lung tumor xenografts; experiment: A549 human lung tumor xenograft in athymic mice, subcutaneous injection; assay type: in vivo, mouse
Experimental: (§1) For reverse-transcriptase real-time PCR, RNA was isolated from cells or tissue, using the TRIzol reagent (GIBCO Invitrogen Corp., Carlsbad, Calif.), as directed by the manufacturer. The RNA concentration and integrity were assessed using an Agilent 2100 Bioanalyzer with an RNA 6000 nano LabChip (Agilent Technologies, Palo Alto, Calif.). Approximately 1 μg of total RNA was reverse transcribed using avian myeloblastosis virus reverse transcriptase (RT) in a 20 μL mixture containing deoxyribonucleotides, random hexamers and RNase inhibitor in RT buffer. Heating the RT reaction product at 95° C. terminated the reaction. For real-time polymerase chain reaction (PCR), 2 μL of the resultant cDNA was added to TaqMan Universal PCR Master Mix (Applied Biosystems, Foster City, Calif.) with a gene-specific primer/probe set (Applied Biosystems, Foster City, Calif.) and amplification was performed on an ABI 7000 Sequence Detection System. The mixtures were heated at 50° C. for 2 min, at 95° C. for 10 min followed by 40 cycles at 95° C. for 15 sec and 60° C. for 1 min. All reactions were performed in triplicate and 18S ribosomal RNA, amplified using the TaqMan Ribosomal RNA Control Kit (Applied Biosystems), served as an internal control. The results were quantified as Ct values, where Ct is defined as the threshold cycle of PCR at which amplified product is first detected, and expressed as the ratio of target/control (Relative Gene Expression).
(§2) Male or female athymic mice (15-20 g, 2-4 weeks of age, Charles River Laboratory, Wilmington, Mass.) were housed in cages with HEPA-filtered air (12-hour light/dark cycle) and ad libitum access to food and autoclaved water. All procedures complied with the policies of the Wake Forest University Animal Care and Use Committee. Mice were inoculated subcutaneously in the lower left flank with approximately 1.9×10^6 A549 lung cancer cells or ZR-75-1 breast cancer cells suspended in 200 μL of cold Matrigel (BD Biosciences, Bedford, Mass.). […] The mice were anesthetized by inhalation with 1.5% isoflurane. […] The minipumps also contained heparin (25 U/mL) to maintain patency of the catheter. On day 28 of the infusion, the animals were anesthetized with halothane and sacrificed by decapitation. Alternatively, the mice received daily subcutaneous injections of Ang-(1-7) in saline or saline alone.
The mice were injected daily, for 5 days, followed by a 2 day rest period, and the injections were continued for 7 cycles. Tumor size was measured every 3 days during the treatment period, using a caliper, and tumor volume was calculated using the formula for a semi-ellipsoid. The tumors continued to grow in the mice treated with saline (FIG. 33). […] It should be noted that a number of the saline control mice were sacrificed after 1 month due to excessive tumor size. Only a single control mouse remained in the study by the 40th day, while the Ang-(1-7)-treated mice thrived.

[4] = tested on: A549 human lung tumor xenografts; experiment: A549 human lung tumor xenograft in athymic mice, intravenous infusion; assay type: in vivo, mouse
Experimental: as §1
Quiescent A549 lung cancer cells or tumor tissue cut into approximately 1-2 mm^2 size pieces were homogenized in phosphate-buffered saline (PBS; 50 mM NaPO4, pH=7.2, 100 mM NaCl). Plasma membranes were isolated by centrifugation and solubilized by boiling in 3% SDS-10% B-mercaptoethanol. PBS was added to the membrane fraction to solubilize the proteins. The protein concentration was measured by a modification of the Lowry method. Solubilized protein (20 μg/well) from saline- and Ang-(1-7)-treated animals were separated by SDS-polyacrylamide gel electrophoresis and transferred to polyvinyl membranes (Amersham Pharmacia, Piscataway, N.J.). Non-specific binding was blocked with 5% blotto (5% evaporated milk, 0.1% Triton X-100 in Tris-buffered saline (TBS; 50 mM Tris-HCl, pH 7.4, 50 mM NaCl). The membranes were incubated with a COX-2 antibody (1:1000; Cayman Chemicals, Ann Arbor, Mich.) followed by a goat anti-rabbit antibody (1:1000; Amersham, Piscataway, N.J.) coupled to horseradish peroxidase. Chemiluminescence reagents were added to visualize the immunoreactive bands, which were quantified by densitometry. An antibody to actin (Sigma, St Louis, Mo.) served as the loading control.
as §2
Tumors were fixed with 4% paraformaldehyde for 24 h and incubated in 70% ethanol for 48 h prior to embedding in paraffin. The embedded tumors were cut into five micron thick sections and stained with hematoxylin and eosin to determine morphology. […]

[5] = tested on: SK-LU-1 lung cancer cells; assay type: cell-based, human
Experimental: Cells were grown to subconfluence in either 24-well cluster plates or 100 mm dishes and made quiescent by treatment for 48 h with serum-depleted growth media, prior to the experiments outlined below to measure cell growth (^3H-thymidine incorporation), cell signaling or apoptosis.
Subsequently, the cell monolayer was washed with cold phosphate-buffered saline (PBS; 50 mM NaPO4, 120 mM NaCl, pH=7.2). The adherent cells were precipitated with cold 10% TCA (4° C. for 30 min) and dissolved in 0.2% SDS in 0.1 N NaOH.
During an additional 4 h, cell monolayers were pulsed with ^3H-thymidine (0.25 μCi/well) and harvested.

[6] = 1000 μg/kg/day, radioimmunoassay
[7] = subcutaneous 1000 μg/kg/day, versus saline
[8] = 24 μg/kg/h intravenous, 28 days, versus saline
[9] = 28 days infusion, versus saline

## CC[C@H](C)[C@H](NC(=O)[C@H](Cc1ccc(O)cc1)NC(=O)[C@@H](NC(=O)[C@H](CCCNC(=N)N)NC(=O)[C@@H](N)CC(=O)O)C(C)C)C(=O)N[C@@H](Cc1c[nH]cn1)C(=O)N1CCC[C@H]1C(=O)O [Ang-(1-7), Asp-Arg-Val-Tyr-Ile-His-Pro]
[1]; 24 μg/kg/h intravenous infusion, Ki-ras^G12C mice
  increase of plasma concentration over saline-infused animals: 5 fold
[1]; 24 μg/kg/h intravenous infusion, Ki-ras^G12C mice, 84 days, n=8, saline 38.7±11.45
  plasma concentration of the heptapeptide: 0.20132 ± 0.099 ng/mL
[1]; Ki-ras^G12C, mouse, plasma, iv, 24 ug/kg/h, read-out: plasma concentration of the heptapeptide
  level at 2016 h: 0.201 ± 0.099 ng/mL
[1]; mouse, plasma, 24 ug/kg/h, 24 μg/kg/h intravenous, 72 days of infusion into mice, n=8, from 0.043±0.013
  level at time molar at 1728 h: 0.224 ± 0.11 nM
caspase-3
  time-dependent increase in caspase-3 activity: about 2 fold
[2]; 10 nM, 48 hour incubation, n=4, control 58.0±3.6 (n=3)
  neovascularization, branch points: 29.5±3.6 branch points
[2]; 100 nM, 2-day incubation, FIG. 14
  reduction in branch points: ~50%
[3]; 1000 μg/kg/day
  prostacyclin synthase: not altered
[3]; [6]
  PGE2 in tumors: reduced
  PGI2 in tumors: increased
[3]; subcutaneous 1000 μg/kg/day, 5 days on/2 days rest, 7 cycles
  tumor growth: significantly reduced
[3]; [7]
  COX-2 in tumors: marked down-regulation
  down-regulation in VEGF mRNA in tumor tissue: about 40%
  reduction in prostaglandin E2 synthase (PGES) mRNA in tumors: greater than 50%
[4]; [8]
  capsular vessel number: no difference
  down-regulation in VEGF mRNA in tumor tissue: greater than 50%
  reduction in intratumoral vessel formation: > 75%
[4]; 24 μg/kg/h intravenous, day 28, n=5, saline 326.3±47.2
  average tumor volume at end of infusion: 84.4±19.8 mm^3
[4]; 24 μg/kg/h, 28 days
  body weight, food and water consumption during infusion: maintained their body weight as well as food and water consumption
  gross pathology of major organs following sacrifice: no gross pathological abnormalities
[4]; [9]
  APAF mRNA in tumor tissue: significant increase
  caspase 3 mRNA in tumor tissue: significant increase
[4]; Western blot of tumor tissue, n=5, saline 0.99±0.12
  COX-2 protein, density of COX-2 immunoreactivity as a function of actin: 0.41±0.09
[4]; at sacrifice, day 28
  tumor weight less than saline-infused: 50%
[4]; at sacrifice, day 28, n=5, saline 0.28±0.03
  tumor weight: 0.13 ± 0.01 g
[4]; intravenous infusion, n=4-5, saline 18.8±9.4%
  proportion of apoptotic nuclei (cleaved caspase 3): 75±4.6%
[4]; n=5, saline 73±[…]
  proportion of proliferating cells (Ki67): 49.5±9.4%
[4]; tumor tissue, versus saline
  reduction of COX-2 protein: 59%
[4]; tumor xenografts, RT real-time PCR, versus saline
  decrease in COX-2 mRNA: 57%
[5]; SK-LU-1, 1% FBS, daily addition of 100 nM
  ^3H-thymidine incorporation over time of treatment: progressively reduced
[5]; SK-LU-1, peptide at 1 or 100 nM
  effect on serum-stimulated ^3H-thymidine incorporation: reduced
